Read-outs that look alike come from different tables or passages of the source.
Experiments:
[1] = system: gelfiltrierter Human-Thrombozyten; assay: Inhibition of aggregation of gel-filtered human platelets after ADP or thrombin stimulation; format: cell-based; details: platelet aggregation
Excerpt: (§1) Geprüft werden die Verbindungen vor allem auf ihre hemmende Wirkung bei der Blutplättchenaggregation und der Anhaftung von Fibrinogen an Blutplättchen. Verwendet werden gefiltrierte Blutplättchen aus humanem Spenderblut, die mit ADP oder Thrombin aktiviert werden.
Als funktioneller Test wird die Hemmung der Aggregation gelfiltrierter Human-Thrombozyten nach ADP- oder Thrombin-Stimulierung durch die erfindungsgemäßen Verbindungen gemessen. Angegeben ist der IC50-Wert der Hemmung.

[2] = target: T1, Rezeptor (Glykoprotein IIb/IIIa) (Homo sapiens, UniProt P05106+P08514); assay: Inhibition of 125I-fibrinogen binding to its receptor on intact gel-filtered human platelets; details: inhibition of 125I-fibrinogen binding after stimulation with ADP (10µM), read-out: Ki (µM), ADP stimuliert
T1 construct: an intakten, gelfiltrierten Human-Thrombozyten; endogenous in cells; host or cells: intact, gel-filtered human platelets from donor blood, stimulated with ADP (10 µM)
Excerpt: as §1
Geprüft wird die Hemmung der Bindung von Fibrinogen an seinen Rezeptor (Glykoprotein IIb/IIIa) an intakten, gelfiltrierten Human-Thrombozyten durch die erfindungsgemäßen Verbindungen. Angegeben ist der Ki Wert der Bindungshemmung von ^125I-Fibrinogen nach Stimulierung mit ADP (10µM).

[3] = ADP-stimulated, read-out: IC50 (µM), ADP-stimuliert
[4] = thrombin-stimulated, read-out: IC50 (µM), Thrombin-stimuliert

T1 sequence (P08514 32-887 limits assumed): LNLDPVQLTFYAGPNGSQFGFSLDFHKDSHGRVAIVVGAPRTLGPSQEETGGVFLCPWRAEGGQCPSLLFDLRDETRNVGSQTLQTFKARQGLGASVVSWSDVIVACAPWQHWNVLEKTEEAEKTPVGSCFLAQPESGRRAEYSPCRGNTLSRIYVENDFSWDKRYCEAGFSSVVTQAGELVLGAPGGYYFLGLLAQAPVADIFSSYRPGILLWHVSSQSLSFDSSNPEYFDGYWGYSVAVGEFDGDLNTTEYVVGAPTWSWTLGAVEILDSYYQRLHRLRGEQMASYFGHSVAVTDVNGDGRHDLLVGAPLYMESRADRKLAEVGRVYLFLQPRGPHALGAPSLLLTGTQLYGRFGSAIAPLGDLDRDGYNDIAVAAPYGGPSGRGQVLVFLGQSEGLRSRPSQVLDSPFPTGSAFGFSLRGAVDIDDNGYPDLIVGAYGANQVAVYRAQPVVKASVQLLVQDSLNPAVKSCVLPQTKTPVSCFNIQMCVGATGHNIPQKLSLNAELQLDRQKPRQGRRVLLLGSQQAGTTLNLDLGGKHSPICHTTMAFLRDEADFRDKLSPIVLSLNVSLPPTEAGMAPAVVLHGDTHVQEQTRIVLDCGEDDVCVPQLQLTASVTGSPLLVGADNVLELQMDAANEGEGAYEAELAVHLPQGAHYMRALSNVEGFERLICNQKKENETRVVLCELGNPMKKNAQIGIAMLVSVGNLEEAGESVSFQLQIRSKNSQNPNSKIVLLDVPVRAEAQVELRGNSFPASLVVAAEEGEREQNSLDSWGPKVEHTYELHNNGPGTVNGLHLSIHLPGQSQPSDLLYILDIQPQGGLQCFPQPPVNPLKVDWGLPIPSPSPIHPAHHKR
T1 sequence (P08514 891-1039 partner limits assumed): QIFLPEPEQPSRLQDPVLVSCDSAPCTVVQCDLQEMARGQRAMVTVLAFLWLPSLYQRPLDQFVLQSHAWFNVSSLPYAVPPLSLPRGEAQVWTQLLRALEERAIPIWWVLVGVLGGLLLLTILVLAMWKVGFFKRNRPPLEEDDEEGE
T1 sequence (P05106 27-788): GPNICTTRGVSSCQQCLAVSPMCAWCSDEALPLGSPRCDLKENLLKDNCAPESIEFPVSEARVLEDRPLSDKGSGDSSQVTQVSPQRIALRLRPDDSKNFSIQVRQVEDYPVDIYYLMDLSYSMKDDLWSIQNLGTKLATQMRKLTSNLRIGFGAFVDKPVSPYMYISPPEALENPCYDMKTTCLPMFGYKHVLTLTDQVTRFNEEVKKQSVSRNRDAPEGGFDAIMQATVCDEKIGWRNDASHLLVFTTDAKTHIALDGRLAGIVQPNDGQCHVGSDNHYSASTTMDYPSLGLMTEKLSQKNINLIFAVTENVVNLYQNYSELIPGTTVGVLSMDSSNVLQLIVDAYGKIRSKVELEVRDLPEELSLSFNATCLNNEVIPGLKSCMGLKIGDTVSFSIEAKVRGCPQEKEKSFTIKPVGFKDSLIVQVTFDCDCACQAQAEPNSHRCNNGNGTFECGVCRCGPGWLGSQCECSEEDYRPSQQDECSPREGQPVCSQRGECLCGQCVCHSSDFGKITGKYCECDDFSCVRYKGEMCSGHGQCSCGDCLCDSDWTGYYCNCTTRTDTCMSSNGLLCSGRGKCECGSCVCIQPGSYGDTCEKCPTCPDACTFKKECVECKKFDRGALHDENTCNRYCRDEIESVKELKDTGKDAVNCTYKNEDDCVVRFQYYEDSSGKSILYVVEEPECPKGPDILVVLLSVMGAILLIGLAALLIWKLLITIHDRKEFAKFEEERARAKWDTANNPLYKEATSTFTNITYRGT

SMILES: N=C(N)NCCC[C@@H]1NC(=S)N(CC(=O)N[C@@H](CC(=O)O)C(=O)N[C@H](C(=O)O)c2ccccc2)C1=O
- IC50 [1, 3]: 0.5 µM
- IC50 [1, 4]: 0.1 µM
- Ki [2]: 0.07 µM

SMILES: N=C(N)c1ccc(CC2NC(=S)N(CC(=O)N[C@@H](CC(=O)O)C(=O)N[C@H](C(=O)O)c3ccccc3)C2=O)cc1 (stereo partly drawn) [Beispiel 2, (5-(S,R)-(4-Formamidino-benzyl)-4-oxo-2-thioxoimidazolidin-3-yl)-acetyl-L-aspartyl-L-phenylglycin]
- IC50 [1, 3]: 0.55 µM
- IC50 [1, 4]: 0.2 µM
- Ki [2]: 0.2 µM

— patent EP0629211B1 (HOECHST AKTIENGESELLSCHAFT, priority 1992, dated 1993)
